According to patent US20180077929A1, “METHODS AND SYSTEMS FOR TREATING MEDICAL DEVICES AND FLUIDS” (priority 2016, published 2018):
Several values for one entry are separate records, joined by “and”; a condition that tells them apart may be missing. Identical values can stand only once.

What was measured:
[1] = Detection of LPS in water in presence of CaSt and EDTA and Tween 20; type: biochemical; conditions: 8330 EU spiked
Procedure: Further testing was performed with addition of EDTA and Polysorbate 20 reagents to verify permanent removal of LPS/endotoxin activity, by adding EDTA and Polysorbate 20 to the extraction solutions to test for potential recovery of endotoxin activity when introduced to these two substances.
The testing was performed in aqueous solutions with added EDTA and Polysorbate 20, with suspended CaSt present in some solutions in varying quantities. […] The tubes were vortexed for 1 minute and placed in a 37 C bath for 1 hour. The tubes were removed from the bath and again vortexed for 1 minute. The solutions were diluted and tested for endotoxin using the Kinetic Chromogenic Method for Endotoxin Quantitation, Charles River Laboratories, Charleston S.C. […] These samples were rigorously vortexed and tested using the Kinetic Chromogenic Method for Endotoxin Quantitation, Charles River Laboratories, Charleston S.C.

[2] = Animal study: intraperitoneal endotoxin mixed with calcium stearate; type: in vivo; conditions: female rats, 4 days, endotoxin alone: severe toxicity
Procedure: An animal study was conducted with 30 female rats with weights ranging from 250-300 g and acclimated for 5 days. All rats were dosed with intraperitoneal injections using 18 gauge needles. The rats were broken into 6 groups. A negative control (NC-1) dosed 5 rats with 5 mL of normal saline solution. […] A positive control (PC-1) dosed 5 rats with 2.5 million EU in a 5 mL saline solution. A second positive control (PC-2) was conducted dosing 5 rats with 5 million endotoxin units in a 5 mL normal saline solution. Two experimental test groups were conducted.
The negative control samples also had no toxicity.

[3] = Kinetics of removal of LPS with different agitation techniques and stearate salts; type: biochemical; conditions: for Endotoxin Detected: 5 mL SRW, baseline 1,502 EU; for Percent (%) Removed: SRW baseline 1,502 EU
Procedure: 5 mL of SRW was added to each of the tubes. Each solution was tested for endotoxin removal after agitation based on with sonication, vortexing, or test tube rolling. Sonication samples were sonicated at each indicated time interval for 30 seconds at a magnitude of 30. Vortex samples were vortexed at each indicated time interval for 30 seconds at 2500 RPM. Rolling samples were constantly rolling at 10 rpm. The samples were tested on the MCS for endotoxin at 1 minute, 20 minutes, 40 minutes, 60 minutes, and 80 minutes.

[4] = Effect of storage (dwell time) on efficacy of pre-mixed CaSt suspensions; type: biochemical; conditions: 15 minutes
Procedure: Efficacy of pre-mixed CaSt suspensions (sonicated and vortexed) was tested, comparing efficacy of immediately prepared suspensions with suspensions having shelf life or dwell time of 90 min, 5 days, and 1 month prior to contact with endotoxin containing solutions.
10 mL SRW was then introduced to the sonicated CaSt mixture. It was then vortexed for 5 seconds to fully incorporate the sonicated CaSt. The mixture was then tested after 15 minutes of interaction to measure the percent decrease of endotoxin.
10 mL SRW was then introduced to the vortexed CaSt mixture. It was then vortexed for 5 seconds to fully incorporate the sonicated CaSt. The mixture was then tested after 15 minutes of interaction to measure the percent decrease of endotoxin.
These mixtures were then tested on the Charles River MCS at a dilution of 1:2000 after 15 minutes of interaction.
Test samples were prepared as described above, sonicated and vortexed, but were subjected to shelf life or dwell time of 90 min, 5 days, and 1 month prior to contact with endotoxin containing solution (SRW). After dwell time exposure, similarly to the immediate mixing test above, 10 mL SRW was then introduced to the sonicated or vortexed CaSt mixture. It was then vortexed for 5 seconds to fully incorporate the sonicated CaSt. The mixture was then tested after 15 minutes of interaction to measure the percent decrease of endotoxin. These mixtures were then tested on the Charles River MCS at a dilution of 1:2000 after 15 minutes of interaction.
*The 1 month shelf life sample was only tested at 0.04 g CaSt and measured the percent removal after 15 minutes of interaction as well as 30 minutes after interaction.

[5] = CaSt suspension 0.007 g in 5 mL
[6] = CaSt suspension 0.007 g with 0.1M EDTA and 0.05% Tween20
[7] = CaSt suspension 0.018 g in 5 mL
[8] = CaSt suspension 0.018 g with 0.1M EDTA and 0.05% Tween20
[9] = CaSt suspension 0.028 g in 5 mL
[10] = CaSt suspension 0.028 g with 0.1M EDTA and 0.05% Tween20
[11] = 0.02 g CaSt, Sonicated, 5 Day dwell time
[12] = 0.02 g CaSt, Sonicated, 90 min dwell time
[13] = 0.02 g CaSt, Sonicated, Immediate Mixing
[14] = 0.02 g CaSt, Vortexed, 5 Day dwell time
[15] = 0.02 g CaSt, Vortexed, 90 min dwell time
[16] = 0.04 g CaSt, Sonicated, 1 Month dwell time
[17] = 0.04 g CaSt, Sonicated, 5 Days dwell time
[18] = 0.04 g CaSt, Sonicated, 90 min dwell time
[19] = 0.04 g CaSt, Sonicated, Immediate Mixing
[20] = 0.04 g CaSt, Vortexed, 5 Days dwell time
[21] = 0.04 g CaSt, Vortexed, 90 min dwell time
[22] = 0.04 g CaSt, Vortexed, Immediate Mixing

Calcium Stearate
Endotoxin Detected [1, 5]: 3995 EU
Percent detected Endotoxin [1, 5]: 48.0%
Endotoxin Detected [1, 6]: 5050 EU
Percent detected Endotoxin [1, 6]: 60.6%
Endotoxin Detected [1, 7]: 1487.5 EU
Percent detected Endotoxin [1, 7]: 17.9%
Endotoxin Detected [1, 8]: 1545 EU
Percent detected Endotoxin [1, 8]: 18.5%
Endotoxin Detected [1, 9]: 235 EU
Percent detected Endotoxin [1, 9]: 2.8%
Endotoxin Detected [1, 10]: 255 EU
Percent detected Endotoxin [1, 10]: 3.1%
Results (toxicity observed) ([2]; T-1: 2,500,000 EU + 0.2 g Calcium Stearate in 5.0 mL normal saline dosed IP): No Toxicity
Results (toxicity observed) ([2]; T-1: 2,500,000 EU + 0.2 g Calcium Stearate in 5.0 mL normal saline dosed IP, listed as calcium stearate): no toxicity or adverse effects
Results (toxicity observed) ([2]; T-2: 5,000,000 EU + 0.2 g Calcium Stearate in 5.0 mL normal saline dosed IP): No Toxicity
Results (toxicity observed) ([2]; T-2: 5,000,000 EU + 0.2 g Calcium Stearate in 5.0 mL normal saline dosed IP, listed as calcium stearate): no toxicity or adverse effects
Endotoxin Detected ([3]; Rolling, 1 minute): 1,230 EU
Percent (%) Removed ([3]; Rolling, 1 minute): 18.1%
Endotoxin Detected ([3]; Rolling, 20 minutes): 1,050 EU
Percent (%) Removed ([3]; Rolling, 20 minutes): 30.1%
Endotoxin Detected ([3]; Rolling, 40 minutes): 630 EU
Percent (%) Removed ([3]; Rolling, 40 minutes): 58.1%
Endotoxin Detected ([3]; Rolling, 60 minutes): 637 EU
Percent (%) Removed ([3]; Rolling, 60 minutes): 57.6%
Endotoxin Detected ([3]; Rolling, 80 minutes): 451 EU
Percent (%) Removed ([3]; Rolling, 80 minutes): 70%
Endotoxin Detected ([3]; Sonication, 1 minute): 270 EU
Percent (%) Removed ([3]; Sonication, 1 minute): 82%
Endotoxin Detected ([3]; Sonication, 20 minutes): 130 EU
Percent (%) Removed ([3]; Sonication, 20 minutes): 91.3%
Endotoxin Detected ([3]; Sonication, 40 minutes): 87.5 EU
Percent (%) Removed ([3]; Sonication, 40 minutes): 94.2%
Endotoxin Detected ([3]; Sonication, 60 minutes): 56.9 EU
Percent (%) Removed ([3]; Sonication, 60 minutes): 96.2%
Endotoxin Detected ([3]; Sonication, 80 minutes): 16.4 EU
Percent (%) Removed ([3]; Sonication, 80 minutes): 98.9%
Endotoxin Detected ([3]; Vortexing, 1 minute): 451 EU
Percent (%) Removed ([3]; Vortexing, 1 minute): 70%
Endotoxin Detected ([3]; Vortexing, 20 minutes): 301 EU
Percent (%) Removed ([3]; Vortexing, 20 minutes): 80%
Endotoxin Detected ([3]; Vortexing, 40 minutes): 139 EU
Percent (%) Removed ([3]; Vortexing, 40 minutes): 90.7%
Endotoxin Detected ([3]; Vortexing, 60 minutes): 173 EU
Percent (%) Removed ([3]; Vortexing, 60 minutes): 88.5%
Percent (%) Removed ([3]; Vortexing, 80 minutes): 93.1%
EU After ([4]; 0.02 g CaSt in 10 mL LRW, Sonicated, Immediate Mixing with 10 mL SRW, 36,100 EU before): 8,960 EU and 10,240 EU
Average Percent Change [4, 11]: 76%
Percent Endotoxin Removed [4, 11]: 76%
EU After ([4]; 0.02 g CaSt, Sonicated, 5 Day dwell time, 37,800 EU before): 9,200 EU
Average Percent Change [4, 12]: 61%
Percent Endotoxin Removed [4, 12]: 58% and 64%
EU After ([4]; 0.02 g CaSt, Sonicated, 90 min dwell time, 36,100 EU before): 15,120 EU and 12,960 EU
Average Percent Change [4, 13]: 74%
Percent Endotoxin Removed [4, 13]: 75% and 72%
Average Percent Change [4, 14]: 64%
Percent Endotoxin Removed [4, 14]: 60% and 68%
EU After ([4]; 0.02 g CaSt, Vortexed, 5 Day dwell time, 37,800 EU before): 15,120 EU and 12,160 EU
Average Percent Change [4, 15]: 43%
Percent Endotoxin Removed [4, 15]: 38% and 47%
EU After ([4]; 0.02 g CaSt, Vortexed, 90 min dwell time, 36,100 EU before): 22,400 EU and 19,280 EU
Average Percent Change ([4]; 0.02 g CaSt, Vortexed, Immediate Mixing): 32%
EU After ([4]; 0.02 g CaSt, Vortexed, Immediate Mixing, 36,100 EU before): 29,200 EU and 20,480 EU
EU After ([4]; 0.04 g CaSt in 10 mL LRW, Sonicated, Immediate Mixing with 10 mL SRW, 36,100 EU before): 5,320 EU and 5,800 EU
Average Percent Change [4, 16]: 50%
Percent Endotoxin Removed [4, 16]: 49.2% and 50.6%
Average Percent Change [4, 17]: 85%
Percent Endotoxin Removed [4, 17]: 87% and 83%
Average Percent Change [4, 18]: 81%
Percent Endotoxin Removed [4, 18]: 83% and 78%
Average Percent Change [4, 19]: 85%
Percent Endotoxin Removed [4, 19]: 85% and 84%
EU After ([4]; 0.04 g CaSt, Sonicated, Mixing after 1 Month dwell time, 14,650 EU before): 7,440 EU and 7,240 EU
EU After ([4]; 0.04 g CaSt, Sonicated, Mixing after 5 Days dwell time, 37,800 EU before): 5,040 EU and 6,560 EU
EU After ([4]; 0.04 g CaSt, Sonicated, Mixing after 90 min dwell time, 36,100 EU before): 6,168 EU and 8,000 EU
Average Percent Change [4, 20]: 75%
Percent Endotoxin Removed [4, 20]: 76% and 74%
Average Percent Change [4, 21]: 54%
Percent Endotoxin Removed [4, 21]: 53% and 54%
Average Percent Change [4, 22]: 44%
Percent Endotoxin Removed [4, 22]: 45% and 43%
EU After ([4]; 0.04 g CaSt, Vortexed, Immediate Mixing, 36,100 EU before): 19,840 EU and 20,480 EU
EU After ([4]; 0.04 g CaSt, Vortexed, Mixing after 5 Days dwell time, 37,800 EU before): 9,080 EU and 9,760 EU
EU After ([4]; 0.04 g CaSt, Vortexed, Mixing after 90 min dwell time, 36,100 EU before): 17,120 EU and 16,460 EU
